Experimental data taken from PMC3904662 (Nature, 2013).
Where two headings read alike, the source gives them in different places.

What was measured:
wild-type LeuT [1] = biological target: T1, wild-type LeuT (Aquifex aeolicus, UniProt O67854)
Δ13 LeuBAT = Δ13 LeuBAT (Aquifex aeolicus, UniProt O67854, A261V/E290S/G24D/G408T/I106S/I262L/I359G/N21Y/P362G/S256G/T254S/T409G/Y265F); assay: biochemical
[2] = biological target: hSERT (human serotonin transporter); conditions: cited from earlier work
wild-type LeuT [3] = biological target: T1, wild-type LeuT; assay: biochemical; conditions: saturation binding of 3H-mazindol

Row | Structure (SMILES) | suppression of sertraline binding to wild-type LeuT (wild-type LeuT [1]; 3 µM 3[H]-sertraline with 5 mM Ala) | Kd (Δ13 LeuBAT) | Kd [2] | Kd (wild-type LeuT [3]) | Kd (wild-type LeuT [1]; saturation binding of 3H-labeled drug, n=3, ±s.e.m)
1 | C[C@H](N)C(=O)O [alanine] | could not suppress the binding of sertraline | – | – | – | –
2 | OC1(c2ccc(Cl)cc2)c2ccccc2C2=NCCN21 (stereo not drawn) [mazindol] | – | 112 ± 18 nM | 103 ± 4.7 nM | 22300 ± 5400 nM | –
3 | Fc1ccc([C@@H]2CCNC[C@H]2COc2ccc3c(c2)OCO3)cc1 [paroxetine] | – | 431 ± 24 nM | – | – | could not be fit to an isotherm because of low affinity
